The values below come from patent US20240246941A1, “SUBSTITUTED 4-(3-AMINOPROP-1-YL)AMINOQUINOLINE ANALOGS AS MODULATORS OF MELANOMA-ASSOCIATED ANTIGEN 11 UBIQUITIN LIGASE” (ST. JUDE CHILDREN'S RESEARCH HOSPITAL, INC., priority 2020, published 2024).

Chain of MAGE-A11:PCF11 (P43364 218-429): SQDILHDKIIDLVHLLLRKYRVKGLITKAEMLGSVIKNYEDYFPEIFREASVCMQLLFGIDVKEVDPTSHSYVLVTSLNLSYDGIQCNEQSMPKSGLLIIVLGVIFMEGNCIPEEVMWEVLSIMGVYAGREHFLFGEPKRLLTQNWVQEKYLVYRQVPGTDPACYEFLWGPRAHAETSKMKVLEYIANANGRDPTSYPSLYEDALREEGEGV

The first assay concerns the target MAGE-A11:PCF11 (Homo sapiens (Human), UniProt P43364). As to the kind of experiment: TR-FRET single point screening at 15 μM. Particulars: single point TR-FRET screening at 15 μM against MAGE-A11:PCF11. On the set-up: unit not given here. The class given is binding. The method in brief: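 Competition TR-FRET: compounds at final 15 μM mixed with 200 nM FAM-PCF11_4, 5 nM GST-MAGEA11 and 5 nM Tb-anti-GST in Tris pH 7.5/MgCl2/BSA/DTT buffer, room temperature, 90 min. Emission ratio 520/490 nm (340 nm excitation) expressed as % inhibition relative to positive and negative controls.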
Background: TR-FRET usually uses a lanthanide donor and a delayed reading to cut background.
As to `Clc1ccc2c(NCCCCN(Cc3ccccc3)Cc3ccco3)ccnc2c1` [SJ000312681], the TR-FRET signal amounted to 12.05.
For the compound `Cc1ccc(CN(CCCCNc2ccnc3cc(Cl)ccc23)Cc2ccccc2)o1` [SJ000312682], the TR-FRET signal came to 2.013.
For the compound `Clc1ccc2c(NCCCCN(Cc3ccccc3)Cc3ccc(Br)o3)ccnc2c1` [SJ000312684], the TR-FRET signal was 14.96.
As to `Clc1ccc2c(NCCCCN(Cc3ccccc3)Cc3ccoc3)ccnc2c1` [SJ000312685], the TR-FRET signal amounted to 14.9.
Same read-out and setting: the result for `Clc1ccc2c(NCCCCN(Cc3ccccc3)Cc3cccs3)ccnc2c1` [SJ000312686] reads 25.05.
The same measure, in the same setting: the result for `Cc1ccc(CN(CCCCNc2ccnc3cc(Cl)ccc23)Cc2ccccc2)s1` [SJ000312687] reads 20.71.
Take `Clc1ccc2c(NCCCCN(Cc3ccccc3)Cc3ccc(Br)s3)ccnc2c1` [SJ000312688]: the TR-FRET signal is 22.04.
On the same count and under the same terms, as for `Clc1ccc2c(NCCCCN(Cc3ccccc3)Cc3ccsc3)ccnc2c1` [SJ000312689], the figure is 16.3; as for `Clc1ccc2c(NCCCCN(Cc3ccccc3)Cc3ccccn3)ccnc2c1` [SJ000312690], 9.531.
The same measure, in the same setting: as for `Clc1ccc2c(NCCCCN(Cc3ccccc3)Cc3ccc[nH]3)ccnc2c1` [SJ000312692], the figure is 28.28; as for `COc1cccc(CN(CCCCNc2ccnc3cc(Cl)ccc23)Cc2ccccc2)c1O` [SJ000312694], 7.676; as for `COc1ccc(O)c(CN(CCCCNc2ccnc3cc(Cl)ccc23)Cc2ccccc2)c1` [SJ000312696], 6.634.
On the same count and under the same terms, the result for `Oc1ccccc1CN(CCCCNc1ccnc2cc(Cl)ccc12)Cc1ccccc1` [SJ000312697] reads 24.83; that for `COc1ccccc1N1CCN(c2c(S(=O)(=O)c3ccccc3)cnc3ccc(C)cc23)CC1` [SJ000315081], −19.55.
`Cc1ccc2ncc(S(=O)(=O)c3ccccc3)c(N3CCN(c4ccccc4F)CC3)c2c1` [SJ000315092] showed a TR-FRET signal of −33.48.
Same read-out and setting: as for `O=S(=O)(c1ccccc1)c1cnc2ccc(F)cc2c1N1CCN(c2ccccc2F)CC1` [SJ000315166], the figure is −99.06.
For the compound `O=S(=O)(c1ccccc1)c1cnc2ccc(Cl)cc2c1N1CCN(c2ccccc2F)CC1` [SJ000315176], the TR-FRET signal is on record as −5.441.
With `COc1ccc2ncc(S(=O)(=O)c3ccccc3)c(N3CCN(c4ccccc4F)CC3)c2c1` [SJ000315263], the TR-FRET signal is −252.5.
Same read-out and setting: the result for `CCCCN(CCCC)CC(=O)Nc1c2c(nc3ccccc13)N(C)CC2` [SJ000331523] reads 2.503.
Consider `CCN(CC)CC(=O)Nc1c2c(nc3ccccc13)N(C)CC2` [SJ000331537], for which the TR-FRET signal is 11.78.
On to `CN(C)CC(=O)Nc1c2c(nc3ccccc13)N(C)CC2` [SJ000332030], for which the TR-FRET signal turned out to be 17.04.
The same measure, in the same setting: the result for `CC(C)CN(CCCCNc1ccnc2cc(Cl)ccc12)Cc1ccccc1` [SJ000357470] reads 25.47; that for `Clc1ccc2c(NC3CCN(CC4CC4)CC3)ccnc2c1` [SJ000357481], 3.973.
Consider `Clc1ccc2c(NCCCCN(Cc3ccccc3)CC3CC3)ccnc2c1` [SJ000357485], for which the TR-FRET signal is reported as 18.34.
`COc1ccc(F)cc1CN1CCC(Nc2ccnc3cc(Cl)ccc23)CC1` [SJ000357493] displayed a TR-FRET signal of 6.153.
Still for that read-out and setting: as for `COc1ccc(F)cc1CN(CCCCNc1ccnc2cc(Cl)ccc12)Cc1ccccc1` [SJ000357496], the figure is 20.78; as for `COc1cccc(F)c1CN1CCC(Nc2ccnc3cc(Cl)ccc23)CC1` [SJ000357498], 10.5.
In turn, `COc1cccc(F)c1CN(CCCCNc1ccnc2cc(Cl)ccc12)Cc1ccccc1` [SJ000357501] had a TR-FRET signal of 5.094.
Same read-out and setting: the result for `Oc1c(F)cc(F)cc1CN(CCCCNc1ccnc2cc(Cl)ccc12)Cc1ccccc1` [SJ000357506] reads 30.65.

The same assay, now with this note: single point TR-FRET screening of quinoline compounds against MAGE-A11:PCF11; 15 μM.
Consider `Cc1ccc(CN(CCCNc2ccnc3cc(Cl)ccc23)Cc2ccccc2)s1` [SJ000312673], for which the TR-FRET signal worked out at 4.629.
The same measure, in the same setting: as for `Clc1ccc2c(NCCCN(Cc3ccccc3)Cc3ccsc3)ccnc2c1` [SJ000312675], the figure is 9.598; as for `Clc1ccc2c(NCCCN(Cc3ccccc3)Cc3nccs3)ccnc2c1` [SJ000312676], −4.148; as for `Clc1ccc2c(NCCCN(Cc3ccccc3)Cc3ccccn3)ccnc2c1` [SJ000312678], −3.851.
Turning to `Clc1ccc2c(NCCCN(Cc3ccccc3)Cc3ccncc3)ccnc2c1` [SJ000312679], the TR-FRET signal is −5.573.
The compound `CCCN(CCCNc1ccnc2cc(Cl)ccc12)Cc1ccccc1` [SJ000357431] had a TR-FRET signal of 19.14.
Still for that read-out and setting: the result for `CCCN(CCCNc1ccnc2cc(Cl)ccc12)Cc1ccc(C)s1` [SJ000357433] reads 16.51; that for `CCCN(CCCNc1ccnc2cc(Cl)ccc12)Cc1ccc(C)o1` [SJ000357437], 20.15; that for `CCCN(CCCNc1ccnc2cc(Cl)ccc12)Cc1sccc1C` [SJ000357439], 19.73.
The same measure, in the same setting: as for `Cc1ccsc1CN(CCCNc1ccnc2cc(Cl)ccc12)Cc1ccccc1` [SJ000357440], the figure is 10.9.
The same measure, in the same setting: as for `CCCN(CCCNc1ccnc2cc(Cl)ccc12)Cc1ccoc1` [SJ000357442], the figure is 6.214.
`CCCN(CCCNc1ccnc2cc(Cl)ccc12)Cc1ccc[nH]1` [SJ000357445]: the TR-FRET signal stood at 10.34.
Same read-out and setting: as for `CCCN(CCCNc1ccnc2cc(Cl)ccc12)Cc1cccnc1` [SJ000357446], the figure is 7.809.
For the compound `CCCN(CCCNc1ccnc2cc(Cl)ccc12)Cc1ccncc1` [SJ000357449], the TR-FRET signal was 9.295.
Same read-out and setting: the result for `CCCN(CCCNc1ccnc2cc(Cl)ccc12)Cc1nccs1` [SJ000357454] reads 11.96; that for `CCCN(CCCNc1ccnc2cc(Cl)ccc12)Cc1ccco1` [SJ000357458], 3.483; that for `Clc1ccc2c(NCCCN(Cc3ccccc3)Cc3ccc(Br)s3)ccnc2c1` [SJ000357461], 27.5.
On the same count and under the same terms, as for `COc1ccc(O)c(CN(CCCNc2ccnc3cc(Cl)ccc23)Cc2ccccc2)c1` [SJ000357463], the figure is 14.17; as for `COc1cccc(CN(CCCNc2ccnc3cc(Cl)ccc23)Cc2ccccc2)c1O` [SJ000357465], 13.17; as for `CC(C)CN(CCCNc1ccnc2cc(Cl)ccc12)Cc1ccccc1` [SJ000357468], 18.75.
With `Clc1ccc2c(NCCCN(Cc3ccccc3)CC3CC3)ccnc2c1` [SJ000357483], the TR-FRET signal came out at 21.06.
On the same count and under the same terms, as for `CCCN(CCCNc1ccnc2cc(Cl)ccc12)Cc1cc(F)ccc1OC` [SJ000357494], the figure is 17.08; as for `COc1ccc(F)cc1CN(CCCNc1ccnc2cc(Cl)ccc12)Cc1ccccc1` [SJ000357495], 6.683; as for `CCCN(CCCNc1ccnc2cc(Cl)ccc12)Cc1c(F)cccc1OC` [SJ000357499], 19.4.
`COc1cccc(F)c1CN(CCCNc1ccnc2cc(Cl)ccc12)Cc1ccccc1` [SJ000357500] yielded a TR-FRET signal of −2.857.
Still for that read-out and setting: as for `Oc1c(F)cc(F)cc1CN(CCCNc1ccnc2cc(Cl)ccc12)Cc1ccccc1` [SJ000357504], the figure is 27.64.
